Laboratory results published in PubChem BioAssay AID2060883 (Molecular Pharmacology Branch, DTP, NCI, 2025).

Test system: 843782-103-R-J1-PDC complex spheroid viability
Experiment: Anticancer human tumor 843782-103-R-J1-PDC patient-derived lung adenocarcinoma cell line growth inhibition [RAS]
Conditions: for IC50: curve of first compound; for viability, T/C: stronger effect = lower value; active = viability on the fitted dose curve at most 10% of control; inactive = the rest
From the text: RAS pathway inhibitors in Combinations in Complex Spheroids
A high-throughput screen of multi-cell type tumor spheroids was designed to identify active combinations of RAS pathway inhibitors and targeted small molecules. Complex spheroids include a stromal component modeled by human endothelial cells (HUVEC) and fibroblasts modeled by human mesenchymal stem cells (MSCs). The concentration ranges selected for each drug and investigational agent were based upon clinically achievable concentrations if the clinical Cmax of the agent was known.
Compounds. The drugs and investigational agents: abemaciclib (NSC768073), cobimetinib (NSC768068), divarasib (GDC6063, NSC841802), docetaxel (NSC628503), GDC-1971 (RLY-1971, NSC841576), gemcitabine (NSC613327), inavolisib (NSC800729), ipatasertib (NSC767898), KB-0742 (NSC834161), MRTX-1133 (NSC836407), osimertinib (NSC779217), RMC-4630 (NSC839698), RMC-6236 (NSC851965), RMC-6291 (NSC852671), Ro-3306 (NSC812927), sapanisertib (NSC764658), SN-38 (NSC673596), staurosporine (NSC755774), SY5609 (NSC837396), and tovorafenib (DAY101, NSC766906), were obtained from the National Cancer Institute (NCI) Developmental Therapeutics Program Chemical Repository. The FDA-approved anticancer drug set is available from the NCI Developmental Therapeutics Program. […] The stock solutions were prepared in dimethyl sulfoxide (DMSO, Sigma-Aldrich, St. Louis, MO, cat. D2650) at 800-fold the tested concentration and stored at -70 degrees C prior to their use. All drugs and investigational agents were tested over a range starting from a high concentration at or near the clinical Cmax and decreasing in half-log increments. If the clinical Cmax for an agent had not been determined, the highest concentration tested was 10 microM.
Cell Culture. All cells were maintained in an incubator at 37 degrees C and 5% CO2 with 95% humidity. The PDC lines were cultured according to standard operating procedures established by the NCI PDMR. All PDCs were thawed and cultured in Matrigel-coated flasks prepared with a working solution of 1X Ham's F-12 nutrient mix, without supplementation (Invitrogen, Waltham, MA, cat. 11765054), 100 U/mL penicillin-streptomycin (Invitrogen, cat. 15140122), and 2.5% Matrigel (Corning Inc., Corning, NY, cat. 354248) for the first three passages. The 362531-283-R-J2-PDC and 782815-120-R-J1-PDC lines were cultured in 6C/Colon 1B media, which includes advanced DMEM/F-12 (Thermo Fisher Scientific, cat. 12634028), 10 mM HEPES (Thermo Fisher Scientific, cat. 15630080), 1X GlutaMAX supplement (Thermo Fisher Scientific, cat. 35050061), 0.1 mg/mL primocin (InvivoGen, San Diego, CA, cat. ant-pm-2), 10% defined fetal bovine serum, heat inactivated (HyClone Laboratories Inc., Logan, UT, cat. SH30070.03HI), 50% L-WRN conditioned media (ATCC, cat. CRL-3276), 1.25 mM N-Acetyl-L-cysteine (Sigma-Aldrich, cat. A9165), 10 mM nicotinamide (Sigma-Aldrich, cat. N0636), 1X B-27 supplement (Thermo Fisher Scientific, cat. 17504044), 1X N-2 supplement (Thermo Fisher Scientific, cat. 17502048), 50 ng/mL human EGF (Thermo Fisher Scientific, cat. PHG0311), and 10 microM Y-27632 dihydrochloride (Tocris Bioscience, cat. 1254). The K12877-001-R-J1-PDC line was cultured in 6I media, which includes all 6C/Colon 1B media plus 10 ng/mL human FGF-10 (PeproTech, cat. 100-26), 1 ng/mL human FGF-2 (PeproTech, cat. 100-18B), 1 µM prostaglandin E2 (Tocris Bioscience, cat. 2296), […] hydrocortisone (Sigma-Aldrich, cat. H4001), and […] bovine insulin (Sigma-Aldrich, cat. I6634). The K86415-001-R-J1-PDC line was cultured in 6D media, which includes all 6C/Colon 1B media components minus the L-WRN conditioned media. The 485176-168-R4-J1-PDC was cultured in PANC media, which includes all 6C/Colon 1B media plus 100 ng/mL human FGF-10 (PeproTech, cat. 100-26), 500 nM SB-431542 (Selleckchem, cat. S1067), and 10 nM gastrin (Tocris Bioscience, cat. 3006). […]
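Also: viability read after seven days of compound exposure.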

Nc1ccn(C2OC(CO)C(O)C2(F)F)c(=O)n1 (configuration not stated) + C#Cc1c(F)ccc2cc(O)cc(-c3ncc4c(N5CC6CCC(C5)N6)nc(OCC56CCCN5CC(F)C6)nc4c3F)c12
14.3 nM: IC50 (second compound 10 µM)
active: viability, T/C (second compound 0.0316 µM, first compound 0.1 µM) 8.18% | viability, T/C (second compound 0.0316 µM, first compound 0.316 µM) 2.69% | viability, T/C (second compound 0.0316 µM, first compound 1 µM) 1.88% | viability, T/C (second compound 0.1 µM, first compound 0.1 µM) 8.24% | viability, T/C (second compound 0.1 µM, first compound 0.316 µM) 1.77% | viability, T/C (second compound 0.1 µM, first compound 1 µM) 1.7% | viability, T/C (second compound 0.316 µM, first compound 0.1 µM) 5.81% | viability, T/C (second compound 0.316 µM, first compound 0.316 µM) 2.1% | viability, T/C (second compound 0.316 µM, first compound 1 µM) 2.74% | viability, T/C (second compound 1 µM, first compound 0.316 µM) 2.99% | viability, T/C (second compound 1 µM, first compound 1 µM) 2.29% | viability, T/C (second compound 3.16 µM, first compound 0.316 µM) 2.53% | viability, T/C (second compound 3.16 µM, first compound 1 µM) 1.91% | viability, T/C (second compound 10 µM, first compound 0.1 µM) 9.79% | viability, T/C (second compound 10 µM, first compound 0.316 µM) 3.81% | viability, T/C (second compound 10 µM, first compound 1 µM) 3%
inactive: viability, T/C (second compound 0.0316 µM, first compound 0.00316 µM) 101% | viability, T/C (second compound 0.0316 µM, first compound 0.01 µM) 101% | viability, T/C (second compound 0.0316 µM, first compound 0.0316 µM) 46.1% | viability, T/C (second compound 0.1 µM, first compound 0.00316 µM) 99.5% | viability, T/C (second compound 0.1 µM, first compound 0.01 µM) 106% | viability, T/C (second compound 0.1 µM, first compound 0.0316 µM) 59.7% | viability, T/C (second compound 0.316 µM, first compound 0.00316 µM) 107% | viability, T/C (second compound 0.316 µM, first compound 0.01 µM) 103% | viability, T/C (second compound 0.316 µM, first compound 0.0316 µM) 65.4% | viability, T/C (second compound 1 µM, first compound 0.00316 µM) 110% | viability, T/C (second compound 1 µM, first compound 0.01 µM) 90.7% | viability, T/C (second compound 1 µM, first compound 0.0316 µM) 54.1% | viability, T/C (second compound 1 µM, first compound 0.1 µM) 9.25% | viability, T/C (second compound 3.16 µM, first compound 0.00316 µM) 93% | viability, T/C (second compound 3.16 µM, first compound 0.01 µM) 73.8% | viability, T/C (second compound 3.16 µM, first compound 0.0316 µM) 40% | viability, T/C (second compound 3.16 µM, first compound 0.1 µM) 7.44% | viability, T/C (second compound 10 µM, first compound 0.00316 µM) 64.6% | viability, T/C (second compound 10 µM, first compound 0.01 µM) 59.5% | viability, T/C (second compound 10 µM, first compound 0.0316 µM) 30.3%
29.3 nM: IC50 (second compound 0.0316 µM)
42.6 nM: IC50 (second compound 0.316 µM)
32.6 nM: IC50 (second compound 1 µM)
39.3 nM: IC50 (second compound 0.1 µM)
21.8 nM: IC50 (second compound 3.16 µM)
